We go through six molecules from ChEMBL document CHEMBL1138233, “New iantherans from the marine sponge Ianthella quadrangulata: novel agonists of the P2Y(11) receptor” (J Med Chem, 2007).

For data set [1], the target named is T1, P2Y purinoceptor 2 (Homo sapiens, UniProt P41231). Briefly: Agonist activity at P2Y2 receptor expressed in 1321N1 cells assessed as cytosolic calcium level at 10 uM relative to GTPgammaS control. The class given is functional, cell-based.
Data set [2] addresses P2Y purinoceptor 1 (Homo sapiens) (UniProt P47900). Briefly: Agonist activity at P2Y1 receptor expressed in 1321N1 cells assessed as cytosolic calcium level at 10 uM relative to GTPgammaS control. It is filed as functional, cell-based.
A short description of data set [3]: Toxicity against 1321N1 cells expressing P2Y2 receptor at 1 to 10 uM. The class given is cell-based. The conditions noted are these: human, 1321-n1, 10 µM.
Data set [4] can be described thus: Toxicity against 1321N1 cells expressing P2Y11 receptor at 1 to 10 uM. The conditions noted are these: human, 1321-n1, 10 µM. It is filed as cell-based.
A short description of data set [5]: Toxicity against 1321N1 cells expressing P2Y1 receptor at 1 to 10 uM. It is filed as cell-based. The conditions noted are these: human, 1321-n1, 10 µM.
The target of data set [6] is T2, P2Y purinoceptor 11 (Homo sapiens) (UniProt Q96G91).
T2 sequence (whole entry): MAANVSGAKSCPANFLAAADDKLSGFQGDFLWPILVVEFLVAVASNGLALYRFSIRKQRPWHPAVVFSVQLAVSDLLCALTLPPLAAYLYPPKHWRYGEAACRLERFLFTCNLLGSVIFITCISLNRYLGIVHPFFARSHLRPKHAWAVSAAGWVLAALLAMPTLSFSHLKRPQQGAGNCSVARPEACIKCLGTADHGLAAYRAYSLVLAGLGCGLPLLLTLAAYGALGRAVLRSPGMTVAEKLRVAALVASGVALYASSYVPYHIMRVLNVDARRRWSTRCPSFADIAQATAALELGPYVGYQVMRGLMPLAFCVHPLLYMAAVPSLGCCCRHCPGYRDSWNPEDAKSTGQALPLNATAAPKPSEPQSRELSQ
Briefly: Agonist activity at P2Y11 receptor expressed in 1321N1 cells assessed as cytosolic calcium level at 10 uM relative to GTPgammaS control. The class given is functional, cell-based.

In data set [7] the target is T2, P2Y purinoceptor 11 (Homo sapiens). Briefly: Agonist activity at P2Y11 receptor expressed in 1321N1 cells assessed as calcium mobilization in presence of 10 uM NF340 at 3.6 uM. It is filed as functional, cell-based.
Data set [8] has the same target. Briefly: Agonist activity at P2Y11 receptor expressed in 1321N1 cells assessed as cytosolic calcium level at 1 uM relative to GTPgammaS control. It is filed as functional, cell-based.
The next data set deals with T3, P2Y purinoceptor 11 (Homo sapiens, UniProt Q96G91).
T3 sequence (Q96G91 whole entry): T2 sequence (whole entry)
As to the kind of experiment: Agonist activity at P2Y11 receptor expressed in 1321N1 cells assessed as cytosolic calcium level. The class given is functional, cell-based.

Data set [9] addresses T1, P2Y purinoceptor 2. Briefly: Agonist activity at P2Y2 receptor expressed in 1321N1 cells assessed as cytosolic calcium level. The class given is functional, cell-based.
Data set [10] deals with P2Y purinoceptor 1 (Homo sapiens) (UniProt P47900). Briefly: Agonist activity at P2Y1 receptor expressed in 1321N1 cells assessed as cytosolic calcium level at 1 uM relative to GTPgammaS control. The class given is functional, cell-based.
Sequence of P2Y purinoceptor 1 (Homo sapiens) (P47900 whole entry): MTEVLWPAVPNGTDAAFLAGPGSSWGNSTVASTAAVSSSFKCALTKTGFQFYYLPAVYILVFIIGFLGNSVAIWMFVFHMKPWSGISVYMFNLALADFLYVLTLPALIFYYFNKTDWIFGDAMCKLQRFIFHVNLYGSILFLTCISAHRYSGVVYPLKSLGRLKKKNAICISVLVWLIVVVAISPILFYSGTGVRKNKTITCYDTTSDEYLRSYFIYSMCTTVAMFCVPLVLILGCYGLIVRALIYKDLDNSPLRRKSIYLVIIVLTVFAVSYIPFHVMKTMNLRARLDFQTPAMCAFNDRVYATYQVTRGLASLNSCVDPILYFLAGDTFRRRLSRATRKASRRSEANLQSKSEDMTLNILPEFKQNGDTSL
Data set [11] has as its target T1, P2Y purinoceptor 2. As to the kind of experiment: Agonist activity at P2Y2 receptor expressed in 1321N1 cells assessed as cytosolic calcium level at 1 uM relative to GTPgammaS control. It is filed as functional, cell-based.
Data set [12] addresses T2, P2Y purinoceptor 11 (Homo sapiens). As to the kind of experiment: Agonist activity at P2Y11 receptor expressed in 1321N1 cells assessed as calcium mobilization in presence of 10 uM NF340 at 1 uM. It is filed as functional, cell-based. (Calcium assays in cells follow changes in intracellular calcium, usually with a dye or a luminescent sensor.)

Each structure is given as a SMILES string. Active and inactive are the calls of the source. No cut-off for these calls is given here.

T1 sequence (P41231 whole entry): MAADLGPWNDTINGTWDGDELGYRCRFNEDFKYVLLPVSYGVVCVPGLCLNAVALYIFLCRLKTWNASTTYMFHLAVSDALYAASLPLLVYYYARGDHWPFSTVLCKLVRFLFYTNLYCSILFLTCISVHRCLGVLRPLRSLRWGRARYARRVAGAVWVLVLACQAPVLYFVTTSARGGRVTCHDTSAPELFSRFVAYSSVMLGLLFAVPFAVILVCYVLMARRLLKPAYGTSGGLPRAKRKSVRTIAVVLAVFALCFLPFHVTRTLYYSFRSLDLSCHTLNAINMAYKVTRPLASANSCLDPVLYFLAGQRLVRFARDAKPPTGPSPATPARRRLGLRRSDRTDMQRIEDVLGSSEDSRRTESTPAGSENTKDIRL

Turning to `COc1c(Br)cc(/C=C(\OS(=O)(=O)[O-])C(=O)O)cc1Br.[Na+]`, the Activity at P2Y purinoceptor 2 [1] is less than 37.5%; in [2], less than 37.5%; in data set [3] it was “Non-toxic”; in data set [4], “Non-toxic”; in data set [5] it was “Non-toxic”; in data set [6], less than 37.5%.
Usually EC50 stands for the concentration needed to bring the measured effect to its halfway point. Turning to `O=S(=O)([O-])OC(=C\c1cc(Br)c2oc(-c3ccc(O)c(Br)c3)cc2c1)/C(=C/c1cc(Br)c2oc(-c3ccc(O)c(Br)c3)cc2c1)OS(=O)(=O)[O-].[Na+].[Na+]` [ISO-IANTHERAN A], the result (at P2Y purinoceptor 2 [1]; in data set [2]; in [8]; in data set [6]) was Active. In data set [7], the result was inactive. The Activity result in data set [3], in data set [4] and in [5] was “Non-toxic” throughout. For the same molecule, at P2Y purinoceptor 11, the EC50 was 1290 nM.
Consider `COc1c(Br)cc(CC(=O)O)cc1Br`, for which the Activity on P2Y purinoceptor 2 [1] was less than 37.5%; in data set [2], less than 37.5%; in data set [3], “Non-toxic”; in data set [4], “Non-toxic”; in [5] it was “Non-toxic”; in [6], less than 37.5%.
Regarding `Nc1ncnc2c1ncn2[C@@H]1O[C@H](CO[P@](=O)(O)O[P@](=O)(O)O[P@@](=O)(O)S)[C@@H](O)[C@H]1O`, the EC50 on P2Y purinoceptor 11 was 63.1 nM.
As to `O=c1ccn([C@@H]2O[C@H](COP(=O)(O)OP(=O)(O)OP(=O)(O)O)[C@@H](O)[C@H]2O)c(=O)[nH]1` [URIDINE TRIPHOSPHATE], at P2Y purinoceptor 2 [9], the EC50 is 110 nM.
With `O=C(O)c1c(-c2ccc(O)c(Br)c2)oc2c(Br)cc(/C=C(OS(=O)(=O)[O-])/C(=C/c3cc(Br)c4oc(-c5ccc(O)c(Br)c5)cc4c3)OS(=O)(=O)[O-])cc12.[Na+].[Na+]` [8-CARBOXY-ISO-IANTHERAN A], the Activity was less than 5% on P2Y purinoceptor 2 [1]; less than 5% in [2]; “Non-toxic” in data set [3]; less than 5% in data set [10]; 94.6% in data set [8]; “Non-toxic” in data set [4]. The Activity entry is “Non-toxic” in [5], less than 5% on P2Y purinoceptor 2 [11] and 114% in data set [6]. At P2Y purinoceptor 11, the EC50 was 479 nM. Besides, the outcome in [12] was inactive.
